According to patent US20250127166A1, “METHOD FOR PREVENTING INSECT DAMAGE TO PLANTS” (AJINOMOTO CO., INC., priority 2022, published 2025):
“Also recorded” adds a separate entry of the source.

How the values were obtained:
[1] = tested on: glutamate receptor of Arabidopsis thaliana; assay: Real-time imaging assay of Ca2+ signals in recombinant Arabidopsis thaliana p35S::GCaMP3; format: in vivo; details: 3 μL of 100 mM solution (10 mM for some compounds with low solubility) applied to leaf cut; GCaMP3 fluorescence
Method: In this example, Ca2+signals produced by contact of Compounds 1-58 and 67-75 with the glutamate receptor of Arabidopsis thaliana were analyzed by a real-time imaging assay in which Ca2+is visualized by fluorescence color development. That is, by using a recombinant Arabidopsis thaliana p35S: : GCaMP3, which incorporated the gene encoding the calcium-sensitive fluorescent protein GCaMP3, as a material, changes in intracellular Ca2+ levels caused by treatments with Compounds 1-58 and 67-75 were detected as fluorescence luminance of GCaMP3, and thereby Ca2+signal transduction in plant bodies was analyzed in real time.
The real-time imaging assay of the Ca2+signals was performed as follows.
As the plant material, 2-week old recombinant Arabidopsis thaliana p35S: : GCaMP3 grown on sterile agar medium was used. A small cut of about 1 mm was made at the tip of the first leaf with scissors, and the plant was allowed to stand for 35 minutes. The plant was then placed under the field of view of the fluorescence microscope SMZ25 (Nikon Solutions), and 3 μL of a compound solution was applied to the leaf cut. The generated Ca2+signals were examined in real time with ORCA-Flash4.0 V2 (Hamamatsu Photonics). […] Compounds that produced Ca2+signals in one or more leaves were determined to be compounds that induce Ca2+signals.

AtOPR^3 gene = assay: Pest damage resistance gene expression induction by qPCR; format: in vivo, Arabidopsis thaliana; details: sixth leaves, 30 minutes after compound treatment of cut first leaf; relative to AtACT8; FIG. 1
Excerpt: As the pest damage resistance gene, the AtOPR^3 (12-oxophytodienoic acid reductase, involved in the jasmonic acid biosynthesis) gene, which is a typical pest damage resistance gene, was selected. As an internal standard, the AtACT8 gene was selected. The recombinant Arabidopsis thaliana p35S: : GCaMP3 was used as a plant material, and cut was formed on the first leaf of the plant cultivated in the same manner as in Example 1 and treated with a compound. As the compound, Compounds 1 and 34 were used. Sixth leaves at 0 and 30 minutes after the compound treatment were collected and frozen in liquid nitrogen. The total RNA was extracted from the frozen leaf samples (50 to 200 mg) by using RNeasy Plant Mini Kit (Qiagen) according to the protocol thereof. The obtained total RNA was subjected to a residual genomic DNA-removing treatment with RNase free DNase I by using TURBO DNase Kit (Ambion) according to the protocol of the kit. By using this total RNA sample and SuperScriptIII First-Strand Synthesis System for RT-PCR (Invitrogen), single-stranded cDNA was prepared. […] The relative expression amount of the AtOPR^3 gene to that of the internal standard AtACT8 gene was calculated by the AACt method. The test was repeatedly performed 4 or 5 times, and the average of the results was calculated.

Pieris rapae [2] = assay: 4-hour feeding damage test on Arabidopsis thaliana (Example 3); format: in vivo; details: for pest damage-suppressing activity: Pieris rapae larva, 4-hour feeding damage test
Excerpt: The recombinant Arabidopsis thaliana […]: : GCaMP3 was used as a plant material, and cut was formed on the first leaf of the plant grown in the same manner as in Example 1 and treated with a compound. Compound 1 was used as the compound. Sorbitol was used as the negative control, and glutamic acid as the positive control. The test was repeatedly conducted 10 times (using independent plants and pests) per plot. One hour after the treatment with the compound, the plant body and 2-week old larva of Pieris rapae were placed in the same container to perform a 4-hour feeding damage test. Weights of the plant body and larva were measured before and after the test to evaluate the weight of the feeding-damaged plant and the weight gain rate of the pest.

Pieris rapae [3] = assay: 4-hour feeding damage test on Arabidopsis thaliana, comparison with commercial product (Example 4); format: in vivo; details: Compound 1 at 100 mM on leaf cut, 4-hour test
Method: The recombinant Arabidopsis thaliana […]: : GCaMP3 was used as a plant material, and cut was formed on the first leaf of the plant cultivated in the same manner as those of Examples 1, 2, and 3 and treated with a compound. Compound 1 and Jasmomate were used as the compound. Compound 1 was used at 100 mM, and Jasmomate was used at a 500-fold dilution concentration (0.4 mM as prohydrojasmon concentration), which is the usual recommended treatment concentration thereof. Sorbitol was used as a negative control. The test was conducted for 15 replicates per plot (independent plants and insects). For Jasmomate, a spray treatment of the leaves was performed (spray plot, Jasmomate was sprayed twice at the concentration mentioned above with an atomizer). The test of the spray plot was conducted for 10 replicates (independent plants and insects). One hour after the compound treatment, the plant body and 2-week old larva of Pieris rapae were placed in the same container to perform a 4-hour feeding damage test. The larva was weighed before and after the test, and the weight gain rate of the pest was evaluated.

Spodoptera litura = assay: Komatsuna leaf disc feeding damage test (Example 5); format: in vivo; details: one day
Method: Glutamic acid was used as a positive control, and Jasmomate Ekizai (the active substance is prohydrojasmon, a typical injurious hormone-like substance), which is the only resistance inducer for pest damage on the market, was used as a control. The test was conducted for 10 replicates per plot (independent plants and pests).
The plant material was leaf discs collected from komatsuna (Brassica rapa var. perviridis) seedlings grown for 1 month after seeding on culture soil in pots, and the test organism was early second instar larva of Spodoptera litura. Compound 1 was used as a 1 mM solution in Silwet L-77 4,000-fold dilution solution prepared by adding Silwet L-77 to distilled water as a solvent. As a negative control, 100 mM or 1 mM sorbitol was used, and 100 mM or 1 mM glutamic acid was used as a positive control. […] One day after the release, the number of surviving Spodoptera litura larvae in each test container was counted, and a photograph was taken from a height of 5 cm above the container with the lid open so that the entire image could be photographed. Image analysis software (ImageJ) was used to determine the damage area (feeding damage area), and the average damage area ratio was calculated for each treatment plot.

Row | SMILES | Ca2+signal induction [1] | pest damage resistance gene (AtOPR^3) expression-inducing activity (AtOPR^3 gene) | weight of the feeding-damaged plant (Pieris rapae [2]; 2-week old Pieris rapae larva, 4-hour test 1 hour after treatment, vs sorbitol plot, FIG. 2) | weight gain rate of the pest (Pieris rapae [2]; 2-week old Pieris rapae larva, 4-hour test 1 hour after treatment, vs sorbitol plot, FIG. 3) | pest damage-suppressing activity (Pieris rapae [2]) | pest damage-suppressing activity (Pieris rapae [3]) | weight gain rate of the pest (Pieris rapae [3]; vs sorbitol plot, FIG. 4) | pest damage-suppressing effect (feeding inhibitory effect) (Spodoptera litura; 1 mM in Silwet L-77 4,000-fold dilution solution) | pest damage-suppressing tendency (Spodoptera litura; 100 mM, compared with 100 mM sorbitol plot)
1 | CC(C)OC(=O)CC[C@H](N)C(=O)O [Compound 1] | strong Ca2+signal induction | equal to or greater than that of glutamic acid; also recorded: high pest damage resistance gene expression-inducing activity | lower in the Compound 1-treated plot than in the sorbitol-treated plot | lower in the Compound 1-treated plot than in the sorbitol-treated plot | distinct pest damage-suppressing activity was observed | distinct pest damage-suppressing activity was observed | lower in the Compound 1-treated plot than in the sorbitol-treated plot | higher than those observed for the 100 mM glutamic acid treatment plot and Jasumomate treatment plot | 
2 | N[C@@H](CCC(=O)N[C@@H](CCC(=O)O)C(=O)O)C(=O)O [Compound 34] | strong Ca2+signal induction | equal to or greater than that of glutamic acid |  |  |  |  |  |  | 
3 | N[C@@H](CCC(=O)O)C(=O)O [glutamic acid, reference compound] |  |  |  |  | no pest damage-suppressing activity was observed |  |  |  | greater pest damage-suppressing tendency was observed
